# Experimental data: PMC7603405 (Nature, 2020)
# Entries after “also recorded” stand apart in the source; their conditions may differ. Peptide text beside a SMILES is read from it. * marks the point of attachment. Cbz = O=C(OCc1ccccc1)*; CHN2 = [N-]=[N+]=C*
# Key:
# SARS-CoV-2 USA-WA1/2020 [1] = assay type: cell-based; details: 2.5 and 1 μM, Vero E6, Table S3
# COVID-19 = COVID-19 patients, NIAID trial; cited from earlier work
# SARS-CoV-2 = assay type: cell-based; details: 5 μM; reversed by RAR antagonist Ro41-5253 5 μM
# [2] = molecular target: SARS-CoV-2 main protease (Mpro) (Severe acute respiratory syndrome coronavirus 2, UniProt P0DTD1); assay type: biochemical; details: 1 to 50 μM
# [3] = molecular target: SARS-CoV-2 papain-like protease (PLpro) (Severe acute respiratory syndrome coronavirus 2, UniProt P0DTD1); assay type: biochemical; details: 1 to 50 μM
# [4] = cited from earlier work
# SARS-CoV-2 USA-WA1/2020 [5] = assay type: cell-based
# SARS-CoV-2 HKU-001a [6] = assay type: cell-based; details: positive control of the screen
# [7] = read-out: Cmax; humans; cited from earlier work
# SARS-CoV-2 USA-WA1/2020 [8] = assay: Time-of-addition assay in Vero E6 cells; assay type: cell-based; details: 2.5 μM
# SARS-CoV-2 HKU-001a [9] = assay type: cell-based
# SARS-CoV-2 USA-WA1/2020 [10] = assay: Drug synergy quantification with remdesivir in Vero E6 cells; assay type: cell-based
molecule,measurement,setting,value
COc1cc(F)cc2c1-c1ccc(F)cc1C21NC(=O)NC1=O (stereo not drawn) [AL 3152],validation as inhibitor of SARS-CoV-2 replication,SARS-CoV-2 USA-WA1/2020 [1],validated
CCC(CC)COC(=O)[C@H](C)N[P@](=O)(OC[C@H]1O[C@@](C#N)(c2ccc3c(N)ncnn23)[C@H](O)[C@@H]1O)Oc1ccccc1 [Remdesivir],improved time to recovery in treated patients,COVID-19,47%
CCOC(=O)c1ccc(C#Cc2ccc3c(c2)C(C)(C)CCS3)nc1 [tazarotene],"effect on viral replication, chemical epistasis",SARS-CoV-2,inhibition of viral replication
same,validation as inhibitor of SARS-CoV-2 replication,SARS-CoV-2 USA-WA1/2020 [1],validated
CCN(CC)CCCNc1ccnc2cc(Cl)ccc12 [AQ-13],validation as inhibitor of SARS-CoV-2 replication,SARS-CoV-2 USA-WA1/2020 [1],validated
CCN(CC)CCCC(C)Nc1ccnc2cc(Cl)ccc12 (stereo not drawn) [chloroquine],validation as inhibitor of SARS-CoV-2 replication,SARS-CoV-2 USA-WA1/2020 [1],confirmed to inhibit SARS-CoV-2 replication
CC(C)CCC(=O)CC1c2ccccc2C(=O)N1c1ccc2ccc(Cl)nc2n1 (stereo not drawn) [pagoclone],validation as inhibitor of SARS-CoV-2 replication,SARS-CoV-2 USA-WA1/2020 [1],validated
CCOC(=O)c1ncc2[nH]c3cccc(OC(C)C)c3c2c1C [ZK-93426],validation as inhibitor of SARS-CoV-2 replication,SARS-CoV-2 USA-WA1/2020 [1],validated
C[C@@H]1CS/C(=N\NC(=O)C(=O)[C@H](NC(=O)C2CCCCCC2)C2CCOCC2)N1C [ONO 5334],inhibitory activity upon 3CLpro / Mpro,[2],lack potent inhibitory activity
same,inhibitory activity upon PLpro,[3],lack potent inhibitory activity
same,tolerability in phase II clinical trials,[4]; treatment of osteoporosis,well tolerated
same,reduction of number of infected cells,SARS-CoV-2 USA-WA1/2020 [5],72%
CCN(C(C)=O)c1cccc(-c2ccnc3c(C#N)cnn23)c1 [zaleplon GR],validation as inhibitor of SARS-CoV-2 replication,SARS-CoV-2 USA-WA1/2020 [1],validated
COc1cc(C)c(/C=C/C(C)=C/C=C/C(C)=C/C(=O)O)c(C)c1C [acitretin],validation as inhibitor of SARS-CoV-2 replication,SARS-CoV-2 USA-WA1/2020 [1],validated; also recorded: confirmed to inhibit SARS-CoV-2 replication
CC1=C(/C=C/C(C)=C/C=C/C(C)=C/C(=O)O)C(C)(C)CCC1 [tretinoin],validation as inhibitor of SARS-CoV-2 replication,SARS-CoV-2 USA-WA1/2020 [1],validated
CC[C@H](NC(=O)[C@H](CS(=O)(=O)CC1CC1)N[C@@H](c1ccc(F)cc1)C(F)(F)F)C(=O)C(=O)NC1CC1 [VBY-825],inhibitory activity upon 3CLpro / Mpro,[2],lack potent inhibitory activity
same,inhibitory activity upon PLpro,[3],lack potent inhibitory activity
COc1ccc(CCN2CCC(Nc3nc4ccccc4n3Cc3ccc(F)cc3)CC2)cc1 [Astemizole],validation as inhibitor of SARS-CoV-2 replication,SARS-CoV-2 USA-WA1/2020 [1],confirmed to inhibit SARS-CoV-2 replication
MDL 28170,inhibitory activity upon 3CLpro / Mpro,[2],lack potent inhibitory activity
same,inhibitory activity upon PLpro,[3],lack potent inhibitory activity
same,reduction of number of infected cells,SARS-CoV-2 USA-WA1/2020 [5],65%
Cc1cccc(/C=N/Nc2cc(N3CCOCC3)n3nc(-c4ccncc4)cc3n2)c1 [APY0201],antiviral activity in CPE assay,SARS-CoV-2 HKU-001a [6],confirmed the potential antiviral activity
CC(C)CC(NC(=O)OCc1ccccc1)C(=O)NC(C(=O)NCC(=O)C=[N+]=[N-])C(C)C (stereo not drawn) [Z LVG CHN2] (Cbz-Leu-Val-Gly-CHN2; configuration not given here),inhibitory activity upon 3CLpro / Mpro,[2],lack potent inhibitory activity
same,inhibitory activity upon PLpro,[3],lack potent inhibitory activity
Cc1cccc(/C=N/Nc2cc(N3CCOCC3)nc(OCCc3ccccn3)n2)c1 [Apilimod],Cmax,[7],265 nM
same,"step of viral life cycle inhibited, time of addition",SARS-CoV-2 USA-WA1/2020 [8],inhibit viral replication during entry
same,doses showing a desirable safety profile in humans,[4]; well tolerated,≤ 125 mg BID
same,reduction of number of infected cells,SARS-CoV-2 USA-WA1/2020 [5],85%
same,antiviral activity in ex vivo lung culture,SARS-CoV-2 HKU-001a [9],potently antagonizes viral replication
"COc1ccc2cc1Oc1ccc(cc1)C[C@H]1c3cc(c(OC)cc3CCN1C)Oc1c(OC)c(OC)cc3c1[C@H](C2)N(C)CC3 [Hanfangchin A, Tetrandrine]",synergy with remdesivir,SARS-CoV-2 USA-WA1/2020 [10],notable levels of synergy with remdesivir
same,validation as inhibitor of SARS-CoV-2 replication,SARS-CoV-2 USA-WA1/2020 [1],validated
CC(/C=C/C=C(\C)c1cc(C(C)(C)C)cc(C(C)(C)C)c1)=C\C(=O)O [LGD-1550],validation as inhibitor of SARS-CoV-2 replication,SARS-CoV-2 USA-WA1/2020 [1],validated
CC1(C)CCC(C)(C)c2cc(NC(=O)c3ccc(C(=O)O)cc3)ccc21 [tamibarotene],validation as inhibitor of SARS-CoV-2 replication,SARS-CoV-2 USA-WA1/2020 [1],validated
